Experimental data reported in patent US10544103B2, “5-HT2 antagonists” (ANAMAR AB, priority 2015, dated 2020).

Biological target: T1, 5-HT2B receptor (Homo sapiens, UniProt P41595)
T1 construct: host or cells: CHO-K1
Experiment: 5-HT2B receptor binding, 3H-LSD ligand displacement assay
Settings: for inhibition at 0.001 µM: 0.001 uM compound; for inhibition at 0.01 µM: 0.01 uM compound; for inhibition at 0.1 µM: 0.1 uM compound; for inhibition at 1 µM: 1 uM compound; for inhibition at 10 µM: 10 uM compound
Method: 5-HT2B receptor binding (performed at Eurofins Panlabs Taiwan, Ltd.) to human receptor protein expressed in CHO-K1 cells was determined in a ligand displacement assay using ^3H-lysergic acid diethylamide (LSD) as radioligand and ketanserine as a standard reference compound. Data is presented as % displacement of radioligand at indicated compound concentrations, see Table 1 and Table 2.

T1 sequence (P41595 whole entry): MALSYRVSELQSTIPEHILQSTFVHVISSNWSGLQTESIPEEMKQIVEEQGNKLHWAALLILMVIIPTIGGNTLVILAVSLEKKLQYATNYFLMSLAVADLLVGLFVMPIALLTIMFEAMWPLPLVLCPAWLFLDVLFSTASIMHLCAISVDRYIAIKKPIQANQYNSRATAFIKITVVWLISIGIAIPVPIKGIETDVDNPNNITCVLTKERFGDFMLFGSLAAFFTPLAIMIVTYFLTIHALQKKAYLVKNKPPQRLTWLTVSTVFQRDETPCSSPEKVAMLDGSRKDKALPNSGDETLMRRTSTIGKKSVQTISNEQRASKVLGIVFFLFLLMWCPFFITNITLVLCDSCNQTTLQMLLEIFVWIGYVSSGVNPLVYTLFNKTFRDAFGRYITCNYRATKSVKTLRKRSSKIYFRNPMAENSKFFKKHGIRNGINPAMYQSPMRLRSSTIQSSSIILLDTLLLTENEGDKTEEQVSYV

SMILES | inhibition at 0.001 µM | inhibition at 0.01 µM | inhibition at 0.1 µM | inhibition at 1 µM | inhibition at 10 µM
COc1ccccc1C1=NN(C(=N)Nc2ccccc2)CC1C (stereo not shown) [Example 96, 3-(2-Methoxyphenyl)-4-methyl-N-phenyl-4,5-dihydro-1H-pyrazole-1-carboximidamide] | 19% | 43% | 93% | – | –
CC1CC(c2c(F)cccc2F)=NN1C(=N)N (stereo not shown) [Example 26, 3-(2,6-Difluorophenyl)-5-methyl-4,5-dihydro-1H-pyrazole-1-carboximidamide] | – | – | 7% | 55% | –
CC1CN(C(=N)Nc2ccc(F)cc2)N=C1c1cccc(Cl)c1O (stereo not shown) [Example 109, 3-(3-Chloro-2-hydroxyphenyl)-N-(4-fluorophenyl)-4-methyl-4,5-dihydro-1H-pyrazole-1-carboximidamide] | 72% | 99% | 104% | – | –
COc1ccccc1C1=NN(C(=N)Nc2ccc(F)cc2)CC1C (stereo not shown) [Example 100, N-(4-Fluorophenyl)-3-(2-methoxyphenyl)-4-methyl-4,5-dihydro-1H-pyrazole-1-carboximidamide] | 19% | 27% | 78% | – | –
CC1CN(C(=N)NO)N=C1c1ccccc1O (stereo not shown) [Example 44, N-Hydroxy-3-(2-hydroxyphenyl)-4-methyl-4,5-dihydro-1H-pyrazole-1-carboximidamide] | 12% | 30% | 85% | 94% | –
CC1CN(C(=N)Nc2ccc(F)cc2)N=C1c1ccccc1O (stereo not shown) [Example 101, N-(4-Fluorophenyl)-3-(2-hydroxyphenyl)-4-methyl-4,5-dihydro-1H-pyrazole-1-carboximidamide] | 55% | 91% | 102% | – | –
CC1CN(C(=N)NCc2ccc(Cl)cc2Cl)N=C1c1ccccc1O (stereo not shown) [Example 57, N-(2,4-Dichlorobenzyl)-3-(2-hydroxyphenyl)-4-methyl-4,5-dihydro-1H-pyrazole-1-carboximidamide] | 21% | 78% | – | – | –
COc1ccccc1C1=NN(C(=N)Nc2ccc(Cl)cc2)CC1C (stereo not shown) [Example 102, N-(4-Chlorophenyl)-3-(2-methoxyphenyl)-4-methyl-4,5-dihydro-1H-pyrazole-1-carboximidamide] | 17% | 44% | 92% | – | –
N=C(N)N1CCC(c2ccccc2F)=N1 [Example 11, 3-(2-Fluorophenyl)-4,5-dihydro-1H-pyrazole-1-carboximidamide] | – | – | 10% | 53% | –
COc1ccc(Cl)cc1C1=NN(C(=N)N)CC1C (stereo not shown) [Example 51, 3-(5-Chloro-2-methoxyphenyl)-4-methyl-4,5-dihydro-1H-pyrazole-1-carboximidamide] | – | 7% | 31% | 76% | –
COc1ccccc1C1=NN(C(=N)NCC(F)(F)F)CC1C (stereo not shown) [Example 94, 3-(2-Methoxyphenyl)-4-methyl-N-(2,2,2-trifluoroethyl)-4,5-dihydro-1H-pyrazole-1-carboximidamide] | -12% | 17% | 77% | – | –
COc1c(Cl)cccc1C1=NN(C(=N)Nc2ccccc2)CC1C (stereo not shown) [Example 88, 3-(3-Chloro-2-methoxyphenyl)-4-methyl-N-phenyl-4,5-dihydro-1H-pyrazole-1-carboximidamide] | 53% | 92% | 97% | – | –
C[C@H]1CN(C(=N)NCc2ccccc2)N=C1c1cccc(Cl)c1O (single isomer, unassigned) [Example 77, (S)*—N-Benzyl-3-(3-chloro-2-hydroxyphenyl)-4-methyl-4,5-dihydro-1H-pyrazole-1-carboximidamide] | 2% | 28% | 88% | – | –
C[C@H]1CN(C(=N)N)N=C1c1cccc(Cl)c1O (single isomer, unassigned) [Example 72, (S)*-3-(3-chloro-2-hydroxyphenyl)-4-methyl-4,5-dihydro-1H-pyrazole-1-carboximidamide] | -1% | 21% | 69% | – | –
CCCCCCCCCCCCNC(=N)N1CC(C)C(c2cccc(Cl)c2O)=N1 (stereo not shown) [Example 83, 3-(3-Chloro-2-hydroxyphenyl)-N-dodecyl-4-methyl-4,5-dihydro-1H-pyrazole-1-carboximidamide] | 3% | 23% | 82% | – | –
CC1CN(C(=N)N)N=C1c1c[nH]c2ccccc12 (stereo not shown) [Example 70, 3-(1H-Indol-3-yl)-4-methyl-4,5-dihydro-1H-pyrazole-1-carboximidamide] | – | 38% | 84% | 98% | –
N=C(N)N1CCC(c2ccccc2N)=N1 [Example 31, 3-(2-Aminophenyl)-4,5-dihydro-1H-pyrazole-1-carboximidamide] | – | – | 21% | 69% | –

SMILES | inhibition at 0.001 µM | inhibition at 0.01 µM | inhibition at 0.1 µM | inhibition at 1 µM | inhibition at 10 µM
CNC(=N)N1CC(C)C(c2ccccc2O)=N1 (stereo not shown) [Example 40, 3-(2-Hydroxyphenyl)-N,4-dimethyl-4,5-dihydro-1H-pyrazole-1-carboximidamide] | 1% | 42% | 92% | 99% | –
CC1CN(C(=N)N)N=C1c1ccc(C(F)(F)F)cc1O (stereo not shown) [Example 69, 3-(2-Hydroxy-4-(trifluoromethyl)phenyl)-4-methyl-4,5-dihydro-1H-pyrazole-1-carboximidamide] | – | – | 70% | 97% | –
COc1ccc(C2=NN(C(=N)N)CC2C)c(OC)c1 (stereo not shown) [Example 66, 3-(2,4-Dimethoxyphenyl)-4-methyl-4,5-dihydro-1H-pyrazole-1-carboximidamide] | – | 5% | 12% | 41% | –
CCCCCCCCCCCCNC(=N)N1CC(C)C(c2cccc(Cl)c2OC)=N1 (stereo not shown) [Example 82, 3-(3-Chloro-2-methoxyphenyl)-N-dodecyl-4-methyl-4,5-dihydro-1H-pyrazole-1-carboximidamide] | 0% | -4% | 51% | – | –
CCOC(=O)NC(=N)N1CC(C)C(c2cccc(Cl)c2OC(=O)OCC)=N1 (stereo not shown) [Example 118, Ethyl ((3-(3-chloro-2-((ethoxycarbonyl)oxy)phenyl)-4-methyl-4,5-dihydro-1H-pyrazol-1-yl)(imino)methyl)carbamate] | – | 0% | 54% | 91% | –
COc1ccc(F)cc1C1=NN(C(=N)N)CC1C (stereo not shown) [Example 45, 3-(5-Fluoro-2-methoxyphenyl)-4-methyl-4,5-dihydro-1H-pyrazole-1-carboximidamide] | – | 26% | 54% | 86% | –
N=C(N)N1CCC(c2cccc3ccsc23)=N1 [Example 10, 3-(Benzo[b]thiophen-7-yl)-4,5-dihydro-1H-pyrazole-1-carboximidamide] | – | – | 75% | 95% | –
CC1CC(c2ccccc2Cl)=NN1C(=N)N (stereo not shown) [Example 25, 3-(2-Chlorophenyl)-5-methyl-4,5-dihydro-1H-pyrazole-1-carboximidamide] | – | – | 54% | 91% | –
CCCCNC(=N)N1CC(C)C(c2cccc(Cl)c2O)=N1 (stereo not shown) [Example 79, N-Butyl-3-(3-chloro-2-hydroxyphenyl)-4-methyl-4,5-dihydro-1H-pyrazole-1-carboximidamide] | 79% | 91% | 94% | – | –
COc1ccc(C2=NN(C(=N)N)CC2)cc1 [Example 15, 3-(4-Methoxyphenyl)-4,5-dihydro-1H-pyrazole-1-carboximidamide, reference compound] | – | – | – | 13% | 56%
CC1CN(C(=N)NC#N)N=C1c1cccc(Cl)c1O (stereo not shown) [Example 91, 3-(3-Chloro-2-hydroxyphenyl)-N-cyano-4-methyl-4,5-dihydro-1H-pyrazole-1-carboximidamide] | -15% | 27% | 74% | – | –
CC1CN(C(=N)N)N=C1c1ccc(F)cc1O (stereo not shown) [Example 50, 3-(4-Fluoro-2-hydroxyphenyl)-4-methyl-4,5-dihydro-1H-pyrazole-1-carboximidamide] | – | 42% | 87% | 96% | –
CC1CN(C(=N)NCC(F)(F)C(F)(F)C(F)(F)F)N=C1c1ccccc1O (stereo not shown) [Example 93, N-(2,2,3,3,4,4,4-Heptafluorobutyl)-3-(2-hydroxyphenyl)-4-methyl-4,5-dihydro-1H-pyrazole-1-carboximidamide] | 21% | 80% | 98% | – | –
C[C@H]1CN(C(=N)N)N=C1c1ccccc1O (single isomer, unassigned) [Example 37] | – | -1% | 35% | 72% | 99%
CC1CN(C(=N)NC2CC2)N=C1c1cccc(Cl)c1O (stereo not shown) [Example 87, 3-(3-Chloro-2-hydroxyphenyl)-N-cyclopropyl-4-methyl-4,5-dihydro-1H-pyrazole-1-carboximidamide] | 24% | 84% | 100% | – | –
COc1c(F)cccc1C1=NN(C(=N)N)CC1C (stereo not shown) [Example 47, 3-(3-Fluoro-2-methoxyphenyl)-4-methyl-4,5-dihydro-1H-pyrazole-1-carboximidamide] | – | 15% | 68% | 92% | –
COc1c(Cl)cccc1C1=NN(C(=N)Nc2ccc(C(F)(F)F)cc2)CC1C (stereo not shown) [Example 112, 3-(3-Chloro-2-methoxyphenyl)-4-methyl-N-(4-(trifluoromethyl)phenyl)-4,5-dihydro-1H-pyrazole-1-carboximidamide] | 1% | 77% | 97% | – | –
